Assay results reported in paper PMC11249953, “c-KIT inhibitors reduce pathology and improve behavior in the Tg(SwDI) model of Alzheimer’s disease” (Life Science Alliance, 2024).

Experiments:
MAP4K4 = target: T1, MAP4K4 (Homo sapiens, UniProt O95819); experiment: KINOMEscan competition binding, MAP4K4; conditions: 10 µM compound; for remaining binding at 10 µM: lower = stronger binding, read-out: MAP4K4 %Ctrl @ 10000nM (POC)
T1 construct: DNA label for qPCR read-out (T7 phage fusion or DNA tag); purchased Eurofins DiscoverX Corporation; host or cells: T7 phage in E. coli (BL21-derived) or HEK-293
Method: (§1) The KINOMEscan screening platform (Eurofins DiscoverX Corporation) was performed using active site-directed competition binding assay to quantitatively measure interactions between BK40143 and BK40197 and more than 450 human kinases and disease relevant mutant variants. […] Screening “hits” are identified by measuring the amount of kinase captured in test (BK40143 and BK40197) versus control samples by using a quantitative and ultra-sensitive qRT-PCR method that detects the associated DNA label. BK40143 and BK40197 were screened at 10 µM concentration, and results for primary screen binding interactions were reported as “% Ctrl” (POC), where lower numbers indicate stronger hits and calculated as follows: [test compound signal−positive control signal/negative control signal−positive control signal]×100
(§2) negative control = DMSO (100% Ctrl)
(§3) positive control = control compound (0% Ctrl)
(§4) Based on screening data from of profiled compounds, a proportional relationship between primary screening results and corresponding compound/target affinities can be described as binding constants (Kd values) for the indicated ranges of POC values with tighter binding (higher affinity) interactions associated with lower POC values and weaker binding (lower affinity) associated with higher POC values. Briefly, kinase-tagged T7 phage strains were grown in parallel in 24-well blocks in an E. coli host derived from the BL21 strain. E. coli were grown to log-phase and infected with T7 phage from a frozen stock (multiplicity of infection = 0.4) and incubated with shaking at 32°C until lysis (90–150 min). The lysates were centrifuged (6,000g) and filtered (0.2 μm) to remove cell debris. The remaining kinases were produced in HEK-293 cells and subsequently tagged with DNA for qRT-PCR detection. Streptavidin-coated magnetic beads were treated with biotinylated small molecule ligands for 30 min at RT to generate affinity resins for kinase assays. The liganded beads were blocked with excess biotin and washed with blocking buffer (1% BSA, 0.05% Tween 20, 1 mM DTT; SeaBlock [Pierce]) to remove unbound ligand and to reduce non-specific phage binding. Binding reactions were assembled by combining kinases, liganded affinity beads, and test compounds in 1x binding buffer (20% 0.17x PBS, 0.05% Tween 20, 6 mM DTT; SeaBlock). Test compounds were prepared as 100x stocks in 100% DMSO and directly diluted into the assay. All reactions were performed in polypropylene 384-well plates in a final volume of 0.02 ml. The assay plates were incubated at RT with shaking for 1 h and the affinity beads were washed with wash buffer (1x PBS, 0.05% Tween 20). […] The kinase concentration in the eluates was measured by qRT-PCR.

p-ABL1 = target: T2, p-ABL1 (Homo sapiens, UniProt P00519); experiment: KINOMEscan competition binding, p-ABL1; conditions: 10 µM compound; for remaining binding at 10 µM: lower = stronger binding, read-out: p-ABL1 %Ctrl @ 10000nM (POC)
T2 construct: DNA label for qPCR read-out (T7 phage fusion or DNA tag); purchased Eurofins DiscoverX Corporation; host or cells: T7 phage in E. coli (BL21-derived) or HEK-293
Method: as §1, §2, §3, §4

[1] = system: amyloid-beta in TgAPP mice; experiment: ELISA for amyloid-beta in brain lysates; assay type: in vivo, mouse; conditions: vs DMSO
Method: All samples were analyzed in parallel using the same reagents. A total of 25 μl soluble protein was incubated overnight at 4°C with 25 μl of a mixed bead solution. After washing, samples were incubated with 25 μl detection antibody solution for 1.5 h at RT. Streptavidin–phycoerythrin (25 μl) was added to each well containing the 25 μl of detection antibody solution. Samples were then washed and suspended in 100 μl of sheath fluid. Samples were then run on MAGPIX with Xponent software. The median fluorescent intensity data were analyzed using a five-parameter logistic or spline curve-fitting method for calculating analyte concentrations in samples. Specific pTau ser396 (KHB7031; Invitrogen), aggregated Aβ (KHB3491; Thermo Fisher Scientific), and Aβ42 (KHB3442; Invitrogen) were performed according to manufacturer’s protocol on tissue soluble extracts from brain lysates in 1XSTEN buffer.

PIKFYVE = target: T3, PIKFYVE (Homo sapiens, UniProt Q9Y2I7); experiment: KINOMEscan competition binding, PIKFYVE; conditions: 10 µM compound; for remaining binding at 10 µM: lower = stronger binding, read-out: PIKFYVE %Ctrl @ 10000nM (POC)
T3 construct: DNA label for qPCR read-out (T7 phage fusion or DNA tag); purchased Eurofins DiscoverX Corporation; host or cells: T7 phage in E. coli (BL21-derived) or HEK-293
Method: as §1, §2, §3, §4

T3 sequence (Q9Y2I7 whole entry, the tested form may be a part): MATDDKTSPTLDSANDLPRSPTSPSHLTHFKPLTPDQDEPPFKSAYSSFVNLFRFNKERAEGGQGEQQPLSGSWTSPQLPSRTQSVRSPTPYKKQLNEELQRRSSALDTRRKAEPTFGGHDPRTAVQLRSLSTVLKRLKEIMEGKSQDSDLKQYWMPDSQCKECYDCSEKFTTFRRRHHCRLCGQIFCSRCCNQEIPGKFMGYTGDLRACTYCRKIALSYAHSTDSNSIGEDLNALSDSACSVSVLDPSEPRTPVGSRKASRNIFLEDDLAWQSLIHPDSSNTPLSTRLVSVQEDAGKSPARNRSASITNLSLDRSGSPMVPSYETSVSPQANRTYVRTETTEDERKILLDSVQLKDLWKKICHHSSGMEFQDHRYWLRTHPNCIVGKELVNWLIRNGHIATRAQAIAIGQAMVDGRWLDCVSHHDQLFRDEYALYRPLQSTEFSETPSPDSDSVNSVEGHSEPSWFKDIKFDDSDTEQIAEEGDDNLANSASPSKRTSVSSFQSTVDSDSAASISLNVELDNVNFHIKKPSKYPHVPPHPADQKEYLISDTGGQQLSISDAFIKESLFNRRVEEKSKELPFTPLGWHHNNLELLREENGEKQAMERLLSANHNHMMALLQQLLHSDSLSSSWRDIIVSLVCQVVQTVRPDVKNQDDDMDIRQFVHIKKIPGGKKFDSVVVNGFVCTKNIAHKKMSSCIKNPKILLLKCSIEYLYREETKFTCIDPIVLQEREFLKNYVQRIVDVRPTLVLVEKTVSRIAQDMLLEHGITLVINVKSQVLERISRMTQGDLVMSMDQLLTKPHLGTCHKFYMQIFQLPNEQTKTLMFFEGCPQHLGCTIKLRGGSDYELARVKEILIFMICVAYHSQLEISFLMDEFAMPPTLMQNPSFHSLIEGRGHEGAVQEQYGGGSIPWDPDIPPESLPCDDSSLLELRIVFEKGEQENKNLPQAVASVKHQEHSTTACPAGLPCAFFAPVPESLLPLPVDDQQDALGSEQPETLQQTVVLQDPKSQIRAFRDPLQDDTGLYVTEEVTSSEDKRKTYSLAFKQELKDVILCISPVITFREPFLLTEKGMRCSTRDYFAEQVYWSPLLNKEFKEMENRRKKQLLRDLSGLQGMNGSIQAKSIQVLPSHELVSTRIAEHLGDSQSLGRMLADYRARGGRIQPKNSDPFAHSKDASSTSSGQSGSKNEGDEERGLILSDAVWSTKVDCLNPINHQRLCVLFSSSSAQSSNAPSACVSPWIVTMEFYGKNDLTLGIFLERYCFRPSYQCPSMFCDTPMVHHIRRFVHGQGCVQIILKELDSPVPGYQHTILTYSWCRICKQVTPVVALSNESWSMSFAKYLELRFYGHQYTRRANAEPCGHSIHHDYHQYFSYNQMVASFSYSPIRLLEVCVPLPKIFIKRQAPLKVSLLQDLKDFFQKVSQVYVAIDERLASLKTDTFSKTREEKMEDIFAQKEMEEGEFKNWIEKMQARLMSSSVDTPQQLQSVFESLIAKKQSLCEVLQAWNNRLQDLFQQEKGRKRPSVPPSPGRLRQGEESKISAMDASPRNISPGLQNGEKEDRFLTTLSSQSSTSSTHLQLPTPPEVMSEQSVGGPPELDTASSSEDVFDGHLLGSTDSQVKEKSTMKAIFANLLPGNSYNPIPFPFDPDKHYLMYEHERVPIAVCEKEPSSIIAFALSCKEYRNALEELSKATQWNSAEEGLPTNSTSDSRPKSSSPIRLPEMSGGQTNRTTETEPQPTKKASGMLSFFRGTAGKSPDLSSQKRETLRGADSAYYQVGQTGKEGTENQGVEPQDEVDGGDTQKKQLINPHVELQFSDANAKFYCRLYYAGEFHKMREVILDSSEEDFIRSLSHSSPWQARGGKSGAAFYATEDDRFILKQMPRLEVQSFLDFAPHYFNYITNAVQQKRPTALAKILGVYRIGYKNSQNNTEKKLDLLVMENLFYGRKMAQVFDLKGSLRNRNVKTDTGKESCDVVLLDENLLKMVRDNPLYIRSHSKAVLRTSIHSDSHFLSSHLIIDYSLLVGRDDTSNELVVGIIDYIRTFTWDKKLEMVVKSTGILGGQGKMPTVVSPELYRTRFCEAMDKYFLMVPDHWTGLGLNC
T1 sequence (O95819 whole entry, the tested form may be a part): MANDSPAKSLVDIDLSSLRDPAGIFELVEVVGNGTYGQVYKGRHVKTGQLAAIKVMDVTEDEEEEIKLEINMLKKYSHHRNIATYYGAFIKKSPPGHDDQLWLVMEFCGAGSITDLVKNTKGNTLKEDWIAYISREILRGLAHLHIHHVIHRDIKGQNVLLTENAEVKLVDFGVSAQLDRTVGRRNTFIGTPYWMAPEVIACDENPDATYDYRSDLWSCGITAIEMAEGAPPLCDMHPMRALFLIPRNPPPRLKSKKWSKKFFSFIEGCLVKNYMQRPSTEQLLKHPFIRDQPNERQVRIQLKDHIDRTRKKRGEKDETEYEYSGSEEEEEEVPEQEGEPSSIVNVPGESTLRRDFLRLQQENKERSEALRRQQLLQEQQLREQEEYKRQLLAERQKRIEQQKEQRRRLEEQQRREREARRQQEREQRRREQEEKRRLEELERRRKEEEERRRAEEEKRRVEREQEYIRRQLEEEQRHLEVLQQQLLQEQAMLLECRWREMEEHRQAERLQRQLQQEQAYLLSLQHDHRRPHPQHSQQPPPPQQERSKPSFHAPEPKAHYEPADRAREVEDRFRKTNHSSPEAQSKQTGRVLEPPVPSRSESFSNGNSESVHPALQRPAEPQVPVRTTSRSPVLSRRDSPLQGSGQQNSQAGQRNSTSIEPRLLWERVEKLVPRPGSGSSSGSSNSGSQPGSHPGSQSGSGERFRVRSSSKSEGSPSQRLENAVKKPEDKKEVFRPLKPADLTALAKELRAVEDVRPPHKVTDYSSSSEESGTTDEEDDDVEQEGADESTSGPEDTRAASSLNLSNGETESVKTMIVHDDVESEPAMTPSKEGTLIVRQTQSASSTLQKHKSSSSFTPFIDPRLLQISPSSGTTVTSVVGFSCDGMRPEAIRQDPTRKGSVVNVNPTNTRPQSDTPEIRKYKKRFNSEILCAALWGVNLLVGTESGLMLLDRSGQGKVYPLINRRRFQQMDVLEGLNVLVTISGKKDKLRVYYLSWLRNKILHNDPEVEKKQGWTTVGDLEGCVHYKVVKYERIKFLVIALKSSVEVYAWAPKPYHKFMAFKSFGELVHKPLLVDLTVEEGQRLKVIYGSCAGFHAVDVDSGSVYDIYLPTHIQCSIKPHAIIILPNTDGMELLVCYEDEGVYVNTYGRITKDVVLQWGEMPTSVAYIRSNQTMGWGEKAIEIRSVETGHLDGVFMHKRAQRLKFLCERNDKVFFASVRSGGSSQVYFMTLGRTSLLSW
T2 sequence (P00519 whole entry, the tested form may be a part): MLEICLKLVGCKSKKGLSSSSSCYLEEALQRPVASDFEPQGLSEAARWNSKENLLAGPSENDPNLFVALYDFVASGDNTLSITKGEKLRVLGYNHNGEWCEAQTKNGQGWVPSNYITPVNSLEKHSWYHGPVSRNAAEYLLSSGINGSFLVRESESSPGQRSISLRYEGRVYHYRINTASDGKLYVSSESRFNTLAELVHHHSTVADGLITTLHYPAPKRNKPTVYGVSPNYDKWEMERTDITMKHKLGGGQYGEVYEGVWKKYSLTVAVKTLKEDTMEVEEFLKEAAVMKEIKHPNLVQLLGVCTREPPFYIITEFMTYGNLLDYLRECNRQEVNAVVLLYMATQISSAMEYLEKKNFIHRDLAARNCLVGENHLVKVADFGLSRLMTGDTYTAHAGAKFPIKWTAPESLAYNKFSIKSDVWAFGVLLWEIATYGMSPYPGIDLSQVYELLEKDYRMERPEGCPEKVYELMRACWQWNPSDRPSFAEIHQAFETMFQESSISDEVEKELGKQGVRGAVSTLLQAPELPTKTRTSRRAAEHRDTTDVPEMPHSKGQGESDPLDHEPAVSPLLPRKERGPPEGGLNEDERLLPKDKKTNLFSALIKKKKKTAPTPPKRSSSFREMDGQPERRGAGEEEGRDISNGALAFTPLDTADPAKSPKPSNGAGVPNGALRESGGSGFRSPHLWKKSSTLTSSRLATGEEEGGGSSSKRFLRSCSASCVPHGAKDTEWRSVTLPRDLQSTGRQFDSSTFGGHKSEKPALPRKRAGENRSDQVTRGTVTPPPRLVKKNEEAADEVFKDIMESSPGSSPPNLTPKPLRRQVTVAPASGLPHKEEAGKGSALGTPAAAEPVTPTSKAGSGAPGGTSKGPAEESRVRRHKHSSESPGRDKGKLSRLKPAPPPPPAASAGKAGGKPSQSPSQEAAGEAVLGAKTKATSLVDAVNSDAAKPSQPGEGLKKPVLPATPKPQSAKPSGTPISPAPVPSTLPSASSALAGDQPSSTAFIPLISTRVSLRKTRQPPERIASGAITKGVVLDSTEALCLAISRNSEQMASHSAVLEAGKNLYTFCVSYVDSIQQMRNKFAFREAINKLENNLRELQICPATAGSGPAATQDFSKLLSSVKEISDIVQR

| Compound | inhibition at 10 µM (MAP4K4) | remaining binding at 10 µM (MAP4K4) | inhibition at 10 µM (p-ABL1) | remaining binding at 10 µM (p-ABL1) | Aβ concentration in brain lysate (ELISA) [1] | inhibition at 10 µM (PIKFYVE) | remaining binding at 10 µM (PIKFYVE) |
| --- | --- | --- | --- | --- | --- | --- | --- |
| Cc1cccc(-c2cc3nccc(N4CCOCC4)c3s2)c1 [BK40197] | 60% | 40% | 63% | 37% | significantly reduced Aβ and pTau (396) concentrations | 99.6% | 0.4% |
| Cc1cccc(-c2cc3nccc(Nc4ccccc4)c3s2)c1 [BK40143] | 93.2% | 6.8% | 97.5% | 2.5% | significantly reduced Aβ and pTau (396) concentrations | 32% | 68% |
